From patent US8461120B2, “Macrocyclic compounds pounds and methods of use thereof” (Synovo GmbH, priority 2004, dated 2013)
pEC50: −log10 of the molar value.

Legend:
Assay type in all cases: cell-based
IFNg = experiment: Suppression of pro-inflammatory responses in isolated cells: IFNg; settings: for activity at 8 µM: read-out: IFNg (% control) at 8 μM
NO = experiment: Suppression of pro-inflammatory responses in isolated cells: NO; settings: for activity at 8 µM: read-out: NO (% control) at 8 μM; for Potency in NO suppression vs. Dexamethasone: relative to Dexamethasone
KC = experiment: LPS-stimulated mouse whole blood, production of the chemotactic cytokine KC (bioplex); settings: Neutrophil, 1.5 h; fresh mouse whole blood stimulated by LPS, incubated 90 minutes; read-out: EC50 of modulation of the neutrophil migration factor KC
Description: FIG. 2. is a graph showing the response of murine blood cells to varying concentrations of a compound of the invention (see Example 31) based on the production of the chemotactic cytokine “KC”. Fresh mouse whole blood was stimulated by LPS and incubated for 90 minutes. KC was quantified by bioplex.

Molecule | activity at 8 µM (IFNg) | activity at 8 µM (NO) | Potency in NO suppression vs. Dexamethasone (NO) | also measured
C[C@@H]1C[C@H]2[C@@H]3CCC4=CC(=O)C=C[C@]4(C)[C@@]3(F)[C@@H](O)C[C@]2(C)[C@@]1(O)C(=O)CO [Dexamethasone, reference compound] | 4.3% | 3.4% | – | –
CC[C@H]1OC(=O)[C@H](C)[C@@H](O[C@H]2C[C@@](C)(OC)[C@@H](O)[C@H](C)O2)[C@H](C)[C@@H](O[C@@H]2O[C@H](C)CC(N(C)CC(O)CNCCCCN)[C@H]2O)[C@](C)(O)C[C@@H](C)CN(C)[C@H](C)[C@@H](O)[C@]1(C)O (stereo partly shown) [Example 29] | – | – | 0.6 | –
CCCCCCCCNCC(O)CN(C)C1C[C@@H](C)O[C@@H](O[C@@H]2[C@@H](C)[C@H](O[C@H]3C[C@@](C)(OC)[C@@H](O)[C@H](C)O3)[C@@H](C)C(=O)O[C@H](CC)[C@@](C)(O)[C@H](O)[C@@H](C)N(C)C[C@H](C)C[C@@]2(C)O)[C@@H]1O (stereo partly shown) [Example 31] | 4.4% | 4.7% | – | pEC50 (KC): ~7.00
CCCCCNCC(O)CN(C)C1C[C@@H](C)O[C@@H](O[C@@H]2[C@@H](C)[C@H](O[C@H]3C[C@@](C)(OC)[C@@H](O)[C@H](C)O3)[C@@H](C)C(=O)O[C@H](CC)[C@@](C)(O)[C@H](O)[C@@H](C)N(C)C[C@H](C)C[C@@]2(C)O)[C@@H]1O (stereo partly shown) [Example 32] | 3.7% | 6.8% | – | –
CCCCC(CC)CNCC(O)CN(C)C1C[C@@H](C)O[C@@H](O[C@@H]2[C@@H](C)[C@H](O[C@H]3C[C@@](C)(OC)[C@@H](O)[C@H](C)O3)[C@@H](C)C(=O)O[C@H](CC)[C@@](C)(O)[C@H](O)[C@@H](C)N(C)C[C@H](C)C[C@@]2(C)O)[C@@H]1O (stereo partly shown) [Example 33] | 3.8% | 3.2% | – | –
CC[C@H]1OC(=O)[C@H](C)[C@@H](O[C@H]2C[C@@](C)(OC)[C@@H](O)[C@H](C)O2)[C@H](C)[C@@H](O[C@@H]2O[C@H](C)CC(N(C)CC(O)CNCC(OC)OC)[C@H]2O)[C@](C)(O)C[C@@H](C)CN(C)[C@H](C)[C@@H](O)[C@]1(C)O (stereo partly shown) [Example 35] | – | – | 0.5 | –
CC[C@H]1OC(=O)[C@H](C)[C@@H](O[C@H]2C[C@@](C)(OC)[C@@H](O)[C@H](C)O2)[C@H](C)[C@@H](O[C@@H]2O[C@H](C)CC(N(C)CC(O)CNc3ncc(C)s3)[C@H]2O)[C@](C)(O)C[C@@H](C)CN(C)[C@H](C)[C@@H](O)[C@]1(C)O (stereo partly shown) [Example 41] | – | – | 0.5 | –
CC[C@H]1OC(=O)[C@H](C)[C@@H](O[C@H]2C[C@@](C)(OC)[C@@H](O)[C@H](C)O2)[C@H](C)[C@@H](O[C@@H]2O[C@H](C)CC(N(C)CC(O)CNc3cc(C)ccn3)[C@H]2O)[C@](C)(O)C[C@@H](C)CN(C)[C@H](C)[C@@H](O)[C@]1(C)O (stereo partly shown) [Example 42] | – | – | 0.8 | –
CC[C@H]1OC(=O)[C@H](C)[C@@H](O[C@H]2C[C@@](C)(OC)[C@@H](O)[C@H](C)O2)[C@H](C)[C@@H](O[C@@H]2O[C@H](C)CC(N(C)CC(O)CN3CCC(O)CC3)[C@H]2O)[C@](C)(O)C[C@@H](C)CN(C)[C@H](C)[C@@H](O)[C@]1(C)O (stereo partly shown) [Example 47] | – | – | 0.5 | –
CCCCN(CCCC)CCCNCC(O)CN(C)C1C[C@@H](C)O[C@@H](O[C@@H]2[C@@H](C)[C@H](O[C@H]3C[C@@](C)(OC)[C@@H](O)[C@H](C)O3)[C@@H](C)C(=O)O[C@H](CC)[C@@](C)(O)[C@H](O)[C@@H](C)N(C)C[C@H](C)C[C@@]2(C)O)[C@@H]1O (stereo partly shown) [Example 49] | 4.3% | 48.2% | – | –
CCCN(CCO)CC(O)CN(C)C1C[C@@H](C)O[C@@H](O[C@@H]2[C@@H](C)[C@H](O[C@H]3C[C@@](C)(OC)[C@@H](O)[C@H](C)O3)[C@@H](C)C(=O)O[C@H](CC)[C@@](C)(O)[C@H](O)[C@@H](C)N(C)C[C@H](C)C[C@@]2(C)O)[C@@H]1O (stereo partly shown) [Example 50] | 4% | 3.9% | – | –
CC[C@H]1OC(=O)[C@H](C)[C@@H](O[C@H]2C[C@@](C)(OC)[C@@H](O)[C@H](C)O2)[C@H](C)[C@@H](O[C@@H]2O[C@H](C)CC(N(C)CC(O)CN3CCN(C=O)CC3)[C@H]2O)[C@](C)(O)C[C@@H](C)CN(C)[C@H](C)[C@@H](O)[C@]1(C)O (stereo partly shown) [Example 56] | – | – | 0.6 | –
CC[C@H]1OC(=O)[C@H](C)[C@@H](O[C@H]2C[C@@](C)(OC)[C@@H](O)[C@H](C)O2)[C@H](C)[C@@H](O[C@@H]2O[C@H](C)CC(N(C)CC(O)COc3cccc(O)c3)[C@H]2O)[C@](C)(O)C[C@@H](C)CN(C)[C@H](C)[C@@H](O)[C@]1(C)O (stereo partly shown) [Example 59] | 96.9% | 99.2% | – | –
CC[C@H]1OC(=O)[C@H](C)[C@@H](O[C@H]2C[C@@](C)(OC)[C@@H](O)[C@H](C)O2)[C@H](C)[C@@H](O[C@@H]2O[C@H](C)CC(N(C)CC(O)COc3ccc(OC)cc3)[C@H]2O)[C@](C)(O)C[C@@H](C)CN(C)[C@H](C)[C@@H](O)[C@]1(C)O (stereo partly shown) [Example 60] | 5.7% | 33.7% | – | –
CC[C@H]1OC(=O)[C@H](C)[C@@H](O[C@H]2C[C@@](C)(OC)[C@@H](O)[C@H](C)O2)[C@H](C)[C@@H](O[C@@H]2O[C@H](C)CC(N(C)CC(O)COc3ccc(B(O)O)cc3)[C@H]2O)[C@](C)(O)C[C@@H](C)CN(C)[C@H](C)[C@@H](O)[C@]1(C)O (stereo partly shown) [Example 61] | 15.6% | 74.2% | – | –
CC[C@H]1OC(=O)[C@H](C)[C@@H](O[C@H]2C[C@@](C)(OC)[C@@H](O)[C@H](C)O2)[C@H](C)[C@@H](O[C@@H]2O[C@H](C)CC(N(C)CC(O)COc3ccc(C(=O)OC)cc3)[C@H]2O)[C@](C)(O)C[C@@H](C)CN(C)[C@H](C)[C@@H](O)[C@]1(C)O (stereo partly shown) [Example 62] | 5.3% | 63.4% | – | –
CC[C@H]1OC(=O)[C@H](C)[C@@H](O[C@H]2C[C@@](C)(OC)[C@@H](O)[C@H](C)O2)[C@H](C)[C@@H](O[C@@H]2O[C@H](C)CC(N(C)CC(O)COC(=O)CNC(=O)OC(C)(C)C)[C@H]2O)[C@](C)(O)C[C@@H](C)CN(C)[C@H](C)[C@@H](O)[C@]1(C)O (stereo partly shown) [Example 63] | 4.4% | 3.9% | – | –
CC[C@H]1OC(=O)[C@H](C)[C@@H](O[C@H]2C[C@@](C)(OC)[C@@H](O)[C@H](C)O2)[C@H](C)[C@@H](O[C@@H]2O[C@H](C)CC(N(C)CC(O)COC(=O)c3nccc4ccccc34)[C@H]2O)[C@](C)(O)C[C@@H](C)CN(C)[C@H](C)[C@@H](O)[C@]1(C)O (stereo partly shown) [Example 65] | 30.9% | 77.6% | – | –
CCC1OC(=O)C(C)C(OC2CC(C)(OC)C(O)C(C)O2)C(C)C(OC2OC(C)CC(N(C)CC3CO3)C2O)C(C)(O)CC(C)C(=O)C(C)C(O)C1(C)O (stereo not shown) [Example 67, 3′-N-demethyl-3′-N-(oxiranylmethyl)erythromycin] | – | – | – | IFNg (% control) at 8 μM (IFNg): 6.0 % control; NO (% control) at 8 μM (NO): 70.0 % control
CC[C@H]1OC(=O)[C@H](C)[C@@H](OC2C[C@@](C)(OC)[C@@H](O)[C@H](C)O2)C[C@@H](OC2O[C@H](C)C[C@H](N(C)CC(O)CNc3ncc(C)s3)[C@H]2O)[C@](C)(O)C[C@@H](C)C(=O)[C@H](C)[C@@H](O)[C@]1(C)O (stereo partly shown) [Example 68] | 4.3% | 2.9% | – | –
CC[C@H]1OC(=O)[C@H](C)C2(O)O[C@@](C)(C[C@@H](C)CN(C)[C@H](C)[C@@H](O)[C@]1(C)O)[C@H](O[C@@H]1O[C@H](C)CC(N(C)CC(O)COC(=O)c3cnc4ccccc4c3)C1O)[C@H]2C (stereo partly shown) [Example 75] | 88.8% | 96.8% | – | –
CC[C@H]1OC(=O)[C@H](C)[C@@H](OC2CC(C)(OC)C(O)C(C)O2)[C@H](C)[C@@H](OC2OC(C)CC(NC)C2O)C(C)(O)C[C@@H](C)C(=O)[C@H](C)[C@@H](O)C1(C)O (stereo partly shown) [desmethyl erythromycin, reference compound] | – | – | – | IFNg (% control) at 8 μM (IFNg): 6.3 % control; NO (% control) at 8 μM (NO): 37.1 % control
descladinosyltetraacetal azithromycin | – | – | 0.6 | –
